Data reported in patent publication US20260183223A1, “A PERSONAL CARE COMPOSITION” (Conopco, Inc., d/b/a UNILEVER, priority 2022, published 2026).

Test system: collagen type III alpha I chain (COL3A1) gene
Assay: Gene expression test: COL3A1 by RT-PCR in normal human dermal fibroblasts
Type: cell-based
Conditions: normal human dermal fibroblasts (NHDF), 48 hours incubation with actives in medium; normalized to ACTB; fold change relative to blank control; actives in wt % of medium
Description: The normal human dermal fibroblasts (NHDF, Biocell, Xi′an, China, Cat: Fb20081902) were incubated in medium together with or without actives for 48 hours. After incubation, the total RNA for each […] was extracted using RNAex Pro reagent (Accurate Biotechnology, Cat: AG21102) according to manufacturer's protocol.
The extracted RNA was quantified using Nanodrop 2000 spectrometer (Thermo Fisher Scientific, Waltham, MA, US) and reverse transcribed to generate the template cDNA using the Evo M-MLV RT Premix for qPCR (Accurate Biotechnology, Cat: AG11706) according to manufacturer's protocol. Amplification of the gene encoding collagen type III alpha I chain (COL3A1) gene was performed with RT-PCR reagent (SYBR® Green Premix Pro Taq HS qPCR Kit, Accurate Biotechnology, Cat: AG11701) on the ABI Vii 7 Real-Time PCR Systems (Applied Biosystems, Thermo fisher scientific, Carlsbad, CA, USA). The beta-actin (ACTB) gene was selected as the housekeeping gene and all data on relative expression of the target genes was normalized to ACTB gene. The fold changes in expression were calculated relative to the blank control (medium having no active).

Lysine carboxymethyl cysteinate was tested, and the “Fold change of expression of COL3A1” value was 1.1.
